19 molecules from PubChem BioAssay (NCI) can be followed below.

Some test systems named below: LOX IMVI melanoma; DMS 114 small cell lung; HCT-116 colon; SNB-78 CNS; CCRF-CEM leukemia; M14 melanoma; MALME-3M melanoma; LXFL 529 NSCLC; K-562 leukemia; RPMI-8226 leukemia; OVCAR-3 ovarian; M19-MEL melanoma; T-47D breast.
Holding throughout (test): NCI-60 cell line screen, 48 h

Structures are written as SMILES.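 Protocol summary: plate cells (96-well), add compound at 5 concentrations, incubate 48 h, interpolate endpoints linearly. TGI: total growth inhibition.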 Where only a bound is given, the exact number is not on record here.

Take `Cn1c2cc(O)cc(O)c2c(=O)c2c([N+](=O)[O-])cccc21`: the TGI with LOX IMVI melanoma, with DMS 114 small cell lung, in the experiment with HCT-116 colon, with SNB-78 CNS, in the experiment with CCRF-CEM leukemia and with M14 melanoma was over 100 µM in each case. For the same molecule, the TGI in the experiment with MALME-3M melanoma, in the experiment with LXFL 529 NSCLC, in the experiment with K-562 leukemia, in the experiment with RPMI-8226 leukemia and with OVCAR-3 ovarian was over 100 µM each time.
On to `COC(=O)[C@@]12OC[C@]34C([C@@H](O)C1O)[C@@]1(C)CC(=O)C(OC(=O)/C=C(/c5ccccc5)C(F)(F)F)=C(C)C1C[C@H]3OC(=O)[C@H](O)[C@H]42` (stereo partly drawn), for which the TGI in the experiment with DMS 114 small cell lung is 22.3 µM; in the experiment with M19-MEL melanoma, over 50 µM; with HCT-116 colon, over 50 µM; with SNB-78 CNS, over 50 µM; with CCRF-CEM leukemia, over 50 µM; in the experiment with M14 melanoma, 36.9 µM. The TGI in the experiment on MALME-3M melanoma is 28.9 µM; in the experiment with LXFL 529 NSCLC it was over 50 µM; with K-562 leukemia, over 50 µM; in the experiment on RPMI-8226 leukemia, 13.9 µM.
Consider `O=c1cc(-c2ccccc2)oc2cc(OCCSCCCCCCCCCCSCCOc3ccc4c(=O)cc(-c5ccccc5)oc4c3)ccc12`, for which the TGI with LOX IMVI melanoma, in the experiment with DMS 114 small cell lung, in the experiment with M19-MEL melanoma, with HCT-116 colon, in the experiment on SNB-78 CNS and in the experiment with CCRF-CEM leukemia was over 100 µM each time. Moreover, the TGI in the experiment on M14 melanoma, with MALME-3M melanoma, in the experiment on LXFL 529 NSCLC, in the experiment on K-562 leukemia, in the experiment on RPMI-8226 leukemia and in the experiment with OVCAR-3 ovarian was over 100 µM throughout.
As for `COC(=O)c1ccc(Cc2ccc(C(=O)OC)o2)o1`, the TGI in the experiment with LOX IMVI melanoma, with M19-MEL melanoma, in the experiment with HCT-116 colon, with CCRF-CEM leukemia, with MALME-3M melanoma and with LXFL 529 NSCLC was over 378 µM in each case. Moreover, the TGI with K-562 leukemia, with RPMI-8226 leukemia and in the experiment on OVCAR-3 ovarian was over 378 µM in each case.
With `O=c1cc(-c2ccc(Cl)cc2)oc2cc(OCCCOc3ccc4c(=O)cc(-c5ccc(Cl)cc5)oc4c3)ccc12`, the TGI with LOX IMVI melanoma, in the experiment on DMS 114 small cell lung, in the experiment with M19-MEL melanoma, in the experiment with HCT-116 colon, in the experiment on SNB-78 CNS and with CCRF-CEM leukemia was over 100 µM throughout. Moreover, the TGI with M14 melanoma, in the experiment on MALME-3M melanoma, in the experiment with LXFL 529 NSCLC, in the experiment with K-562 leukemia, with RPMI-8226 leukemia and with OVCAR-3 ovarian was over 100 µM each time.
`COc1cc2c(cc1OC)C(=O)C(C1=C(SC(=N)N)C(=O)c3cc(OC)c(OC)cc31)C2` (stereo not drawn): the TGI with LOX IMVI melanoma, with DMS 114 small cell lung, with M19-MEL melanoma, in the experiment with HCT-116 colon, in the experiment with SNB-78 CNS and in the experiment with CCRF-CEM leukemia was over 100 µM throughout. Moreover, the TGI in the experiment on M14 melanoma, in the experiment with MALME-3M melanoma, in the experiment on LXFL 529 NSCLC, with K-562 leukemia, in the experiment with RPMI-8226 leukemia and in the experiment on OVCAR-3 ovarian was over 100 µM in each case.
For `COc1cc(/C=C2/C(=O)N(C(=O)c3ccc(Cl)cc3)N=C2C)cc(OC)c1OC`, the TGI in the experiment with LOX IMVI melanoma, in the experiment with M19-MEL melanoma, in the experiment on HCT-116 colon, with SNB-78 CNS, in the experiment on CCRF-CEM leukemia and in the experiment with M14 melanoma was over 100 µM each time. Moreover, the TGI with MALME-3M melanoma, in the experiment with LXFL 529 NSCLC, in the experiment with K-562 leukemia, in the experiment with RPMI-8226 leukemia and in the experiment with OVCAR-3 ovarian was over 100 µM throughout.
In the case of `Cc1ccc(O)c(C(=O)CCCC(=O)c2cc(C)ccc2O)c1`, the TGI with LOX IMVI melanoma, in the experiment with DMS 114 small cell lung, in the experiment with M19-MEL melanoma, with SNB-78 CNS, with CCRF-CEM leukemia and with M14 melanoma was over 100 µM each time. For the same molecule, the TGI in the experiment on MALME-3M melanoma, in the experiment on LXFL 529 NSCLC, with K-562 leukemia and in the experiment with RPMI-8226 leukemia was over 100 µM in each case.
On to `COc1cc([C@@H]2c3cc4c(cc3[C@@H](NC(=O)c3cccc(F)c3)C3COC(=O)[C@@H]32)OCO4)cc(OC)c1O` (stereo partly drawn), for which the TGI was 15.1 µM with LOX IMVI melanoma; 5.2 µM in the experiment on DMS 114 small cell lung; 41.4 µM in the experiment with M19-MEL melanoma; 13.8 µM in the experiment on HCT-116 colon; over 100 µM in the experiment with SNB-78 CNS; over 100 µM with CCRF-CEM leukemia. Besides, the TGI was 6.72 µM in the experiment with M14 melanoma; 7.83 µM in the experiment on MALME-3M melanoma; over 100 µM with LXFL 529 NSCLC; over 100 µM in the experiment with K-562 leukemia; 5.85 µM with RPMI-8226 leukemia; 17.4 µM in the experiment on OVCAR-3 ovarian.
In the case of `N=C(N)SCc1cccc2c(=O)cc(-c3ccccc3)oc12`, the TGI in the experiment on LOX IMVI melanoma amounted to 28.3 µM; in the experiment with DMS 114 small cell lung, 31.1 µM; in the experiment with M19-MEL melanoma, 49.9 µM; in the experiment on HCT-116 colon, 19.7 µM; with SNB-78 CNS, 31.7 µM; in the experiment with T-47D breast it was 15.9 µM. Further, the TGI with CCRF-CEM leukemia is 18.6 µM; in the experiment with M14 melanoma it was 27.5 µM; with MALME-3M melanoma, 27.2 µM; with K-562 leukemia, over 42.2 µM; in the experiment with RPMI-8226 leukemia, 18.4 µM; in the experiment on OVCAR-3 ovarian, 23.1 µM.
As to `COc1ccc(C(=O)/C=C/c2ccc(OCC(=O)N3CCN(c4ccccc4)CC3)cc2)cc1`, the TGI is over 100 µM in the experiment with LOX IMVI melanoma; over 100 µM in the experiment with DMS 114 small cell lung; over 100 µM in the experiment with M19-MEL melanoma; over 100 µM with HCT-116 colon; 54.8 µM with SNB-78 CNS; over 100 µM with T-47D breast. The TGI was over 100 µM in the experiment on CCRF-CEM leukemia; over 100 µM with M14 melanoma; over 100 µM with MALME-3M melanoma; over 100 µM with LXFL 529 NSCLC; over 100 µM with K-562 leukemia; over 77.8 µM in the experiment on RPMI-8226 leukemia. The molecule further displayed a TGI in the experiment with OVCAR-3 ovarian of over 100 µM.
As for `CC(=O)NNc1nc(C)c(C(/C=C/c2ccc(Cl)cc2)=N/NC(=O)C[N+](C)(C)C)s1`, the TGI in the experiment on LOX IMVI melanoma, in the experiment with DMS 114 small cell lung, in the experiment with M19-MEL melanoma, in the experiment on HCT-116 colon, with CCRF-CEM leukemia and with M14 melanoma was over 100 µM throughout. Further, the TGI in the experiment on MALME-3M melanoma, in the experiment with LXFL 529 NSCLC, with K-562 leukemia and in the experiment with OVCAR-3 ovarian was over 100 µM throughout.
With `[N-]=[N+]=NC(CBr)c1cn([C@H]2C[C@H](O)[C@@H](CO)O2)c(=O)[nH]c1=O` (stereo partly drawn), the TGI in the experiment on LOX IMVI melanoma, in the experiment with DMS 114 small cell lung, with M19-MEL melanoma, with HCT-116 colon, with SNB-78 CNS and with CCRF-CEM leukemia was over 100 µM each time. Also, the TGI with M14 melanoma, with MALME-3M melanoma, in the experiment with LXFL 529 NSCLC, with K-562 leukemia, in the experiment with RPMI-8226 leukemia and in the experiment on OVCAR-3 ovarian was over 100 µM each time.
As for `CC(C)C(/C=C/c1ccc(Br)cc1)=N\NC(N)=O`, the TGI with LOX IMVI melanoma is over 100 µM; in the experiment with DMS 114 small cell lung, over 100 µM; in the experiment on M19-MEL melanoma, 25.4 µM; in the experiment on HCT-116 colon, over 100 µM; with SNB-78 CNS, over 100 µM; with CCRF-CEM leukemia, over 100 µM. Besides, the TGI with M14 melanoma, in the experiment on LXFL 529 NSCLC, in the experiment on K-562 leukemia and in the experiment on RPMI-8226 leukemia was over 100 µM each time.
For `CSc1nc2[nH]c(=O)c(C)nc2c(=O)[nH]1`, the TGI in the experiment on LOX IMVI melanoma, in the experiment on DMS 114 small cell lung, in the experiment on M19-MEL melanoma, in the experiment with HCT-116 colon, with CCRF-CEM leukemia and in the experiment with M14 melanoma was over 100 µM throughout. Moreover, the TGI with MALME-3M melanoma, in the experiment with LXFL 529 NSCLC, in the experiment on K-562 leukemia, with RPMI-8226 leukemia and in the experiment on OVCAR-3 ovarian was over 100 µM throughout.
As for `O=C(O)c1oc(C(=O)O)c(C(=O)O)c1C(=O)O`, the TGI with LOX IMVI melanoma, with HCT-116 colon, with T-47D breast, in the experiment on CCRF-CEM leukemia, in the experiment on M14 melanoma and with MALME-3M melanoma was over 100 µM throughout. Further, the TGI in the experiment on K-562 leukemia, in the experiment on RPMI-8226 leukemia and in the experiment with OVCAR-3 ovarian was over 100 µM in each case.
Consider `NC(=O)c1[nH]cnc1/N=N/SCC(N)C(=O)O` (stereo not drawn), for which the TGI with LOX IMVI melanoma, in the experiment with HCT-116 colon, with T-47D breast, in the experiment on CCRF-CEM leukemia, with M14 melanoma and in the experiment on MALME-3M melanoma was over 100 µM throughout. Further, the TGI in the experiment on K-562 leukemia, in the experiment on RPMI-8226 leukemia and in the experiment with OVCAR-3 ovarian was over 100 µM each time.
On to `CC(C)C1OC(/C=C/c2ccccc2)OCC1(C)C` (stereo not drawn), for which the TGI in the experiment with LOX IMVI melanoma is 36.6 µM; in the experiment with HCT-116 colon, 92 µM; in the experiment with T-47D breast, over 100 µM; in the experiment with CCRF-CEM leukemia, 41.8 µM; with M14 melanoma it was over 100 µM; in the experiment on MALME-3M melanoma, 25.8 µM. For the same molecule, the values for the TGI in the experiment with K-562 leukemia, with RPMI-8226 leukemia and in the experiment on OVCAR-3 ovarian were over 100 µM, 47 µM and 44.9 µM, respectively.
For the molecule `CCCCS(=O)(=O)Nc1ccc(Nc2c3ccccc3nc3ccccc23)c(OC)c1`, the TGI in the experiment with LOX IMVI melanoma came to 3.85 µM; in the experiment on M19-MEL melanoma it was 19.6 µM; in the experiment with HCT-116 colon, 8.11 µM; in the experiment on SNB-78 CNS, 18.9 µM; in the experiment on CCRF-CEM leukemia, 6.26 µM; with MALME-3M melanoma, 7.99 µM. Further, the TGI was 16.5 µM in the experiment with K-562 leukemia, over 21.4 µM in the experiment on RPMI-8226 leukemia and 16.3 µM in the experiment with OVCAR-3 ovarian.
